{"source": "patent US20030159159A1", "about": "“Human nerve growth factor exon 1 and exon 3 promoters” (priority 1997, published 2003)", "key": {"[1]": {"test_system": "wild type cells", "assay": "G418 concentration curve on wild type cells", "assay_type": "cell-based", "conditions": "in 13 days", "protocol": "Since geneticin (G418) resistance would be used as a selection tool, a G418 concentration curve was done and it was determined that 600 μg/ml was the minimum concentration G418 necessary to kill all the wild type cells in 13 days."}, "[2]": {"test_system": "human nerve growth factor exon 3 promoter (pGL2Ex3) in L929 cells", "assay": "Luciferase assay, L929 stable cell line with pGL2Ex3 (human NGF exon 3 promoter)", "assay_type": "cell-based", "conditions": "serum deprivation 48-56 hours, 18 hr treatment: serum 10% horse serum, PMA 1 μM, calcitriol 10 nM, mean ± SEM, 1 cell line n = 11-17, read-out: Fold induction over vehicle controls without serum (luciferase), L929 Mouse Exon 3", "description": "(§1) DNA for the human nerve growth factor exon 3 clones was originally identified by PCR screening a human P1 genomic library (clone 0095-B8, Genome Systems). A ˜6600 bp fragment containing exon 3 was cloned into a pBS SK+ vector to yield the plasmid identified as pBSEx3. A 4329 bp fragment was isolated from the insert in pBSEx3 and subcloned into a pGL2 enhancer vector (Promega) and a pGL3 basic vector (Promega) to yield clones identified as pGL2Ex3 and pGL3Ex3, respectively. The pGL2Ex3 was transfected into mouse L929 cells and the pGL3Ex3 vector was transfected into human UC11 cells to generate the data in Table 1.\nL929 mouse fibroblast cells (ATCC, Rockville, Md.) were grown in Dulbecco's modified Eagle's medium (DMEM) containing 10% horse serum, penicillin (50 μg/ml), streptomycin (50 μg/ml), neomycin (100 μg/ml), and glutamine (1 mM). Cells were maintained at 37° C. in 5% CO2, fed every 3-4 days and passaged once per week. […]\n(§2) Cells were plated at 5,000 cells/well in 96 well dishes in serum containing media described above. […] Cells were treated with 1 μM PMA, 10 nM calcitriol or 10% horse serum and luciferase activity was determined 18 hours later using a Promega kit (catalog #E1500). […] Luciferase activity was detected in a MicroLumat LB 96 P luminometer (Wallac Inc, Gaithersburg, Md.) for 10 seconds following automatic injection of 100 μl 470 μM luciferin."}, "[3]": {"test_system": "human nerve growth factor exon 1 promoter KE (pNE1KE) in L929 cells", "assay": "Luciferase assay, L929 stable cell lines with pNE1KE (human NGF exon 1 promoter KE)", "assay_type": "cell-based", "conditions": "serum deprivation 48-56 hours, 18 hr treatment: serum 10% horse serum, PMA 1 μM, calcitriol 10 nM, mean ± SEM, 6 cell lines in duplicate, read-out: Fold induction over vehicle controls without serum (luciferase), L929 Mouse Exon 1 KE", "description": "(§3) DNA for the human nerve growth factor exon 1 clones was originally identified by PCR screening a human P1 genomic library (clone 1226-G9, Genome Systems). A ˜14,000 bp fragment containing exon 1 was cloned into a pBS SK+ vector to yield the plasmid identified as pBSEx1. Two overlapping fragments were isolated from the insert in pBSEx1 and subcloned into a pGL3neo vector. The largest construct containing human nerve growth factor exon 1 is 2846 bp and is identified as pNE1KS. The second subclone from pBSEx1, identified as pNE1KE, contains the same 5′ end as pNE1KS and is truncated on the 3′ end in exon 1, resulting in an insert that is 2234 bp. pNE1KS and pNE1KE were transfected into mouse L929 cells and human UC 11 cells to generate the data in Table 1. […]\nas §2"}, "[4]": {"test_system": "human nerve growth factor exon 1 promoter KS (pNE1KS) in L929 cells", "assay": "Luciferase assay, L929 stable cell lines with pNE1KS (human NGF exon 1 promoter KS)", "assay_type": "cell-based", "conditions": "serum deprivation 48-56 hours, 18 hr treatment: serum 10% horse serum, PMA 1 μM, calcitriol 10 nM, mean ± SEM, 6 cell lines in duplicate, read-out: Fold induction over vehicle controls without serum (luciferase), L929 Mouse Exon 1 KS", "description": "as §3, §2"}, "[5]": {"test_system": "human nerve growth factor exon 3 promoter (pGL3Ex3) in UC11 cells", "assay": "Luciferase assay, UC11 stable cell line with pGL3Ex3 (human NGF exon 3 promoter)", "assay_type": "cell-based", "conditions": "serum deprivation 48-56 hours, 18 hr treatment: serum 10% horse serum, PMA 1 μM, calcitriol 10 nM, mean ± SEM, 1 cell line n = 11-17, read-out: Fold induction over vehicle controls without serum (luciferase), UC11 Human Exon 3", "description": "as §1\nUC11 human astrocytoma cells (Liwnicz, et. al. 1986) were grown in RPMI 1640 containing 10% fetal bovine serum, 20 mM HEPES, penicillin (50 μg/ml), streptomycin (50 μg/ml), neomycin (100 μg/ml), and glutamine (1 mM). Cells were maintained at 37° C. in 5% CO2, fed every 3-4 days and passaged once per week. […]\nas §2"}, "[6]": {"test_system": "human nerve growth factor exon 1 promoter KE (pNE1KE) in UC11 cells", "assay": "Luciferase assay, UC11 stable cell lines with pNE1KE (human NGF exon 1 promoter KE)", "assay_type": "cell-based", "conditions": "serum deprivation 48-56 hours, 18 hr treatment: serum 10% horse serum, PMA 1 μM, calcitriol 10 nM, mean ± SEM, 6 cell lines in triplicate, read-out: Fold induction over vehicle controls without serum (luciferase), UC11 Human Exon 1 KE", "description": "as §3, §2"}, "[7]": {"test_system": "human nerve growth factor exon 1 promoter KS (pNE1KS) in UC11 cells", "assay": "Luciferase assay, UC11 stable cell lines with pNE1KS (human NGF exon 1 promoter KS)", "assay_type": "cell-based", "conditions": "serum deprivation 48-56 hours, 18 hr treatment: serum 10% horse serum, PMA 1 μM, calcitriol 10 nM, mean ± SEM, 6 cell lines in triplicate, read-out: Fold induction over vehicle controls without serum (luciferase), UC11 Human Exon 1 KS", "description": "as §3, §2"}, "[8]": {"test_system": "mouse L929 fibroblasts", "conditions": "cited from earlier work"}, "[9]": {"test_system": "primary glial cells", "conditions": "cited from earlier work"}, "[10]": {"test_system": "ROS 17/2.8 osteoblastic cells", "conditions": "cited from earlier work"}}, "data": [{"smiles": "CN[C@@H]1[C@@H](O)[C@@H](O[C@@H]2[C@@H](O)[C@H](O[C@H]3O[C@H]([C@@H](C)O)[C@@H](O)[C@H](O)[C@H]3N)[C@@H](N)C[C@H]2N)OC[C@]1(C)O", "note": "[G418, geneticin]", "values": [{"measurement": "minimum concentration G418 necessary to kill all the wild type cells", "setting": "[1]", "value": 600, "unit": "µg/mL"}]}, {"smiles": "C=C1/C(=C\\C=C2/CCC[C@]3(C)[C@@H]([C@H](C)CCCC(C)(C)O)CC[C@@H]23)C[C@@H](O)C[C@@H]1O", "note": "[CALCITRIOL, calcitriol]", "values": [{"measurement": "fold induction at 0.01 µM", "setting": "[2]", "value": 0.73}, {"measurement": "fold induction at 0.01 µM", "setting": "[3]", "value": 0.71}, {"measurement": "fold induction at 0.01 µM", "setting": "[4]", "value": 0.67}, {"measurement": "fold induction at 0.01 µM", "setting": "[5]", "value": 0.98}, {"measurement": "fold induction at 0.01 µM", "setting": "[6]", "value": "1.01 ± 0.23"}, {"measurement": "fold induction at 0.01 µM", "setting": "[7]", "value": "0.86 ± 0.03"}]}, {"smiles": "CCCCCCCCCCCCCC(=O)O[C@@H]1[C@@H](C)[C@@]2(O)[C@@H](C=C(CO)C[C@]3(O)C(=O)C(C)=C[C@@H]23)[C@@H]2C(C)(C)[C@]12OC(C)=O", "note": "[PMA, phorbol 12-myristate 13-acetate]", "values": [{"measurement": "effect on synthesis of NGF", "setting": "[8]", "value": "enhances the synthesis of NGF"}, {"measurement": "effect on synthesis of NGF", "setting": "[9]", "value": "enhances the synthesis of NGF"}, {"measurement": "effect on NGF expression", "setting": "[10]", "value": "suppresses expression"}]}]}
